Legend:
[1] = molecular target: PI3-kinase p110-alpha/p85-alpha (Homo sapiens, UniProt P42336); test: Inhibition of N-terminal His6-tagged recombinant full length human p110alpha/untagged recombinant full length human p85alpha expressed in baculovirus infected Sf21 insect cells using PIP2 as substrate preincubated for 15 mins followed by substrate addition and measured after 1 hr by HTRF assay
[2] = molecular target: PI3-kinase p110-delta/p85-alpha (Homo sapiens, UniProt O00329); test: Inhibition of N-terminal His6-tagged recombinant full length human p110delta/untagged recombinant full length human p85alpha expressed in baculovirus infected Sf21 insect cells using PIP2 as substrate preincubated for 15 mins followed by substrate addition and measured after 1 hr by HTRF assay
[3] = molecular target: T1, Phosphatidylinositol 4,5-bisphosphate 3-kinase catalytic subunit delta isoform (Homo sapiens, UniProt O00329); test: Inhibition of PI3Kdelta in human whole blood assessed as reduction in anti-CD79b antibody-induced CD69 expression preincubated for 60 mins followed by anti-CD79b antibody stimulation and measured after 3 hrs by FACS analysis; format: tissue-based
T1 sequence (O00329 whole entry): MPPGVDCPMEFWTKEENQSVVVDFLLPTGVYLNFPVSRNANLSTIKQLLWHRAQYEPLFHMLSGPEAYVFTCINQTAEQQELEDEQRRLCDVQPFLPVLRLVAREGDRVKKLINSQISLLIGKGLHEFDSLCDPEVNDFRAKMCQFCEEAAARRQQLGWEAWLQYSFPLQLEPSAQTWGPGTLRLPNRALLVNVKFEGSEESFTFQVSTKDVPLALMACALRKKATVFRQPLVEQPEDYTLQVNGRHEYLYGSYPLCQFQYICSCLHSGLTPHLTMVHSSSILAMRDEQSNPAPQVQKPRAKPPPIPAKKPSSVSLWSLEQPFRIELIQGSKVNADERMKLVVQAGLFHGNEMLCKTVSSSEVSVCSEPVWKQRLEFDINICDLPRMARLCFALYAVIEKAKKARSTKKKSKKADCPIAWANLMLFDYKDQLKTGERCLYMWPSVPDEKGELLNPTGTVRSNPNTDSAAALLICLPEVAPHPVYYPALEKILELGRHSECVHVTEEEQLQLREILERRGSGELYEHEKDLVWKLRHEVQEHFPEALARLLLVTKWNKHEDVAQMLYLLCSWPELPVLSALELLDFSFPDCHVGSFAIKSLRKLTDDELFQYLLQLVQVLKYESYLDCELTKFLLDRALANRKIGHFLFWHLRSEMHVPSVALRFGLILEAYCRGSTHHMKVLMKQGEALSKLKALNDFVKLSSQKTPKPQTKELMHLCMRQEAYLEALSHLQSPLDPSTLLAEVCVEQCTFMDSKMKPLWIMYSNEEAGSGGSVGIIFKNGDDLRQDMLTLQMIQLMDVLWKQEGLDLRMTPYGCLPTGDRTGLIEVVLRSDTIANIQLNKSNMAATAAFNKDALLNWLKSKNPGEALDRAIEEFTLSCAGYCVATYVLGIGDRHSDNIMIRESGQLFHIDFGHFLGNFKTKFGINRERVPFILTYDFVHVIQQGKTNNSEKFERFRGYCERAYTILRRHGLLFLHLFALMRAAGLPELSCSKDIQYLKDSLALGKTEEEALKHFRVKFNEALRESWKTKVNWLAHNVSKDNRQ

Phosphodiesterase 1 = Phosphodiesterase 1 (Homo sapiens, UniProt P54750+Q01064+Q14123); test: Inhibition of PDE1 (unknown origin); format: protein assay
Phosphodiesterase 3 = Phosphodiesterase 3 (Homo sapiens, UniProt Q14432+Q13370); test: Inhibition of PDE3 (unknown origin); format: protein assay
Phosphodiesterase 4 = Phosphodiesterase 4 (Homo sapiens, UniProt P27815+Q08499+Q07343+Q08493); test: Inhibition of PDE4 (unknown origin); format: protein assay
[4] = molecular target: High affinity cAMP-specific and IBMX-insensitive 3',5'-cyclic phosphodiesterase 8A (Homo sapiens, UniProt O60658); test: Inhibition of PDE8 (unknown origin)
[5] = molecular target: cAMP and cAMP-inhibited cGMP 3',5'-cyclic phosphodiesterase 10A (Homo sapiens, UniProt Q9Y233); test: Inhibition of PDE10 (unknown origin)
[6] = Intrinsic clearance in Beagle dog at 0.25 mg/kg, iv or 0.5 mg/kg, po; format: ADME, organism-based, Canis lupus familiaris; conditions: in vivo
[7] = Volume of distribution in Beagle dog; format: ADME, Canis lupus familiaris; conditions: in vivo
[8] = Half-life in Beagle dog; format: ADME, Canis lupus familiaris; conditions: in vivo
Rattus norvegicus = test: Hemodynamic activity in telemetered rat assessed as effect on arterial blood pressure at 60 mg/kg; format: ADME, organism-based; conditions: in vivo
[9] = fAUC in telemetered rat at 60 mg/kg; format: ADME, organism-based; conditions: in vivo
[10] = fCmax in telemetered rat at 60 mg/kg; format: ADME, organism-based; conditions: in vivo
[11] = Toxicity in Beagle dog assessed as decrease in RBC count at 25 mg/kg administered for 8 days; format: organism-based, Canis lupus familiaris; conditions: in vivo, 192 h
Cytochrome P450 = test: Inhibition of cytochrome P450 (unknown origin); format: ADME, protein assay; conditions: human
Homo sapiens = species: Homo sapiens; test: Selectivity ratio of IC50 for N-terminal His6-tagged recombinant full length human p110beta/untagged recombinant full length human p85alpha expressed in baculovirus infected Sf21 insect cells to N-terminal His6-tagged recombinant full length human p110delta/untagged recombinant full length human p85alpha expressed in baculovirus infected Sf21 insect cells

cAMP and cAMP-inhibited cGMP 3',5'-cyclic phosphodiesterase 10A, sequence (Q9Y233 whole entry): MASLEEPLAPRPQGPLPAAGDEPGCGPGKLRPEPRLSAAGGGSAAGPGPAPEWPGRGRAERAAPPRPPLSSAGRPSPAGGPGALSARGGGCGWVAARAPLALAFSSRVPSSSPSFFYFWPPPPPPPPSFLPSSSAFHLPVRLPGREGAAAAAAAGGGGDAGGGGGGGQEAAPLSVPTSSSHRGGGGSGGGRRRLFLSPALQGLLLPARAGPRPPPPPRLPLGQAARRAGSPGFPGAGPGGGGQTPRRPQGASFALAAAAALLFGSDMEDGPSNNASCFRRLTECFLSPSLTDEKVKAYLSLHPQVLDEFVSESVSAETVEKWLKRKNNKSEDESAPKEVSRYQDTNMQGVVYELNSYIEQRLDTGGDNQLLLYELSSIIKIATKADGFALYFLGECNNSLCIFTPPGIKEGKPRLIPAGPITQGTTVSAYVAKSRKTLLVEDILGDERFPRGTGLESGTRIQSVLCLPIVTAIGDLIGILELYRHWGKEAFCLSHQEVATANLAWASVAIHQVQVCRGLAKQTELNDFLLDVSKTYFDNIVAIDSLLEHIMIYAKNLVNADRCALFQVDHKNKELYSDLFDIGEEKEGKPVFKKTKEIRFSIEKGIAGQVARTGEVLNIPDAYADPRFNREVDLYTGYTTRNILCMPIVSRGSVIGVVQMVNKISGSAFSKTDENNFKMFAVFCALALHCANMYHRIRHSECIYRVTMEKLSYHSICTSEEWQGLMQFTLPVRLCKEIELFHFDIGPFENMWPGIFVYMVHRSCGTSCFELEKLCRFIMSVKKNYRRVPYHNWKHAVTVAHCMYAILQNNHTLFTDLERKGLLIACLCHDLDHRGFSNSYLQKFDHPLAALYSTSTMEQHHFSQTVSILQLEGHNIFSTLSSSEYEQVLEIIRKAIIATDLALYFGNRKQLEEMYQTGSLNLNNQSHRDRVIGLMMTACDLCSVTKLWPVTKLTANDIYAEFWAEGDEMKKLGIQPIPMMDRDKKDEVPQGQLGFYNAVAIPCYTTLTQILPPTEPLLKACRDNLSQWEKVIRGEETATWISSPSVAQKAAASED
PI3-kinase p110-delta/p85-alpha, sequence (P27986 whole entry, one chain of several, canonical isoform): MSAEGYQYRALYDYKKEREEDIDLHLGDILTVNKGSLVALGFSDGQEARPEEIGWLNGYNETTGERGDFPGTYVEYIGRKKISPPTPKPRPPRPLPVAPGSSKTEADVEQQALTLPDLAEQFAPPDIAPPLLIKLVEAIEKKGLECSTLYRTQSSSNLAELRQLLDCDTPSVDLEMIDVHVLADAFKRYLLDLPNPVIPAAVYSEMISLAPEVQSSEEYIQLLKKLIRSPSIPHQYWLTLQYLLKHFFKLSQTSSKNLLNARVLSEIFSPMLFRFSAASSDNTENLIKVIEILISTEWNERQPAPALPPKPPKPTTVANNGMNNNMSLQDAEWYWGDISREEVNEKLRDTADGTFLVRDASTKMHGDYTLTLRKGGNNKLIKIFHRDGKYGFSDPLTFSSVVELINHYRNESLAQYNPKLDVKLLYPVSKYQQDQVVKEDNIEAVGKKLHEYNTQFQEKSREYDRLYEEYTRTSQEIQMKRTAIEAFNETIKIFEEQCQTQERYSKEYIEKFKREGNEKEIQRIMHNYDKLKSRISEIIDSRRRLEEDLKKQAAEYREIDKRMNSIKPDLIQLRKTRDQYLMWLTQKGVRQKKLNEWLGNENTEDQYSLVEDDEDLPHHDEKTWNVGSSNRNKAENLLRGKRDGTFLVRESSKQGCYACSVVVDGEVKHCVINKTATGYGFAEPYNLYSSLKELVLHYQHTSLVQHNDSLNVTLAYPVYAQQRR
PI3-kinase p110-alpha/p85-alpha, sequence (P27986 whole entry): as the sequence (P27986 whole entry, one chain of several, canonical isoform) above
PI3-kinase p110-alpha/p85-alpha, sequence (P42336 whole entry): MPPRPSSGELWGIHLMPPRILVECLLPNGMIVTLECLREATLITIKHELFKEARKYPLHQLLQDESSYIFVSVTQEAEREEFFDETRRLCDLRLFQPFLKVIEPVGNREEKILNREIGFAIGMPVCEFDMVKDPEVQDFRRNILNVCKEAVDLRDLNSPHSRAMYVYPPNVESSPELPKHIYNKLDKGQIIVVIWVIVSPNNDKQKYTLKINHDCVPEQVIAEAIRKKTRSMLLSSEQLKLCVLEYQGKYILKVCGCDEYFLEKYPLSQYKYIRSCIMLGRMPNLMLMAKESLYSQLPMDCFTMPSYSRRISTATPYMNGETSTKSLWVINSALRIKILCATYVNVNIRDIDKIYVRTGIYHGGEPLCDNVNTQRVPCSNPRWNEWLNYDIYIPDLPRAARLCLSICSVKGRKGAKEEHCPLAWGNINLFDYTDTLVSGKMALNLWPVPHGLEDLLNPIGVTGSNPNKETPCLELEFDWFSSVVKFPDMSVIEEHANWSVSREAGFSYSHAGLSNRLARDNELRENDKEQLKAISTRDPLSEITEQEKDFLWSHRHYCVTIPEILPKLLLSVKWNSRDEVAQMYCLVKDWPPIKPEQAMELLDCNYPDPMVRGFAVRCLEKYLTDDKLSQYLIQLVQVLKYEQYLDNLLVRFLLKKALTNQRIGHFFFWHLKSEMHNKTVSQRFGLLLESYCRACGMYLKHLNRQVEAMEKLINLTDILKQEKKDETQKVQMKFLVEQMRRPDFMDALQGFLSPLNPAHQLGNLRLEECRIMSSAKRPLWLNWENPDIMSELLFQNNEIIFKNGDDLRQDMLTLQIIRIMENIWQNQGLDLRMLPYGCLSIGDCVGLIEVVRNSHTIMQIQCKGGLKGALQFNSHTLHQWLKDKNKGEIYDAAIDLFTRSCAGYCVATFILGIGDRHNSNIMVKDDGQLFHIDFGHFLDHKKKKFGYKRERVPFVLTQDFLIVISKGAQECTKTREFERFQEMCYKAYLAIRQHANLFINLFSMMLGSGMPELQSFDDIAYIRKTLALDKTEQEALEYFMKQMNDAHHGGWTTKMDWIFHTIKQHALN
High affinity cAMP-specific and IBMX-insensitive 3',5'-cyclic phosphodiesterase 8A, sequence (O60658 whole entry): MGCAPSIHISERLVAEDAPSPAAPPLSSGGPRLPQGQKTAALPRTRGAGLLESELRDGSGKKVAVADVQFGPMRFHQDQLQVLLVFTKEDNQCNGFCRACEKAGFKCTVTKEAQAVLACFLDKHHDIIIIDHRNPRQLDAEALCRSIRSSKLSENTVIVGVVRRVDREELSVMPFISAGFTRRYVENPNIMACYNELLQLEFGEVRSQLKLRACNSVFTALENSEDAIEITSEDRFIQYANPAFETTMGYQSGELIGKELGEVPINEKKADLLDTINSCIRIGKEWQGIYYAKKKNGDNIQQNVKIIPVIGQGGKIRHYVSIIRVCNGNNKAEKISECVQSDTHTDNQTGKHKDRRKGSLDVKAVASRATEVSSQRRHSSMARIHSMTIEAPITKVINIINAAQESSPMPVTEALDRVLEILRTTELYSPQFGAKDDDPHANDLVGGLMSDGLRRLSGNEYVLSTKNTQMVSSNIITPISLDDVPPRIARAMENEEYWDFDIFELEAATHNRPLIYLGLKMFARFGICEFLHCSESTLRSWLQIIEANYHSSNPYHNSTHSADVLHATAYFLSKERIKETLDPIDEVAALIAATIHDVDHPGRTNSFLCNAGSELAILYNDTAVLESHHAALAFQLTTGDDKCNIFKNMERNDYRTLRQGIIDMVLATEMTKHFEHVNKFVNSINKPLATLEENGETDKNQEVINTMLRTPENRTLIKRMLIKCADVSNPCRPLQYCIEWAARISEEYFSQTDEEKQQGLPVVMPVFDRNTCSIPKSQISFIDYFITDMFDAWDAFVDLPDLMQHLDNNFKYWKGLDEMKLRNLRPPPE

- IC50 [1]: 270 nM
- IC50 [2]: 3.9 nM
- IC50 [3]: 360 nM
- IC50 (Phosphodiesterase 1): > 50000 nM
- IC50 (Phosphodiesterase 3): > 50000 nM
- IC50 (Phosphodiesterase 4): > 50000 nM
- IC50 [4]: > 50000 nM
- IC50 [5]: > 50000 nM
- CL [6]: 10 mL/min/kg
- Vd [7]: 0.9 L/kg
- half-life [8]: 1.5 h
- inhibition (INH) (Cytochrome P450): Not Active
SMILES: CCn1ncc(-c2nc3c(O[C@H]4CCN(C(=O)C5CCOCC5)C4)ncnc3n2C)c1C
- Activity (Rattus norvegicus): Non-Toxic
- fAUC [9]: 61 µM·h
- fCmax [10]: 44 µM
- Activity [11]: Non-Toxic
- Ratio IC50 (Homo sapiens): 1400
